Data: US20130011333A1, “Methods and Compositions for Nanoparticle-Mediated Cancer Cell-Targeted Delivery” (Board of Regents, The University of Texas System, priority 2010, published 2013)

Tests used:
[1] = system: MCF-10A cells; test: Colony formation assay; format: cell-based, human; conditions: expression level that markedly inhibits MDA-MB-231 growth
Protocol: FIG. 6. MCF-10A cells are less sensitive to a moderate level of p53/p73OD expression. MCF-10A cells with MDA-MB-231 cells as controls were transfected with the indicated vectors (0.5 μg) and subjected to colony formation assay as in FIG. 5. Western blot was performed in parallel to determine the level of p53/p73OD expression.
As a result, the response of normal cells to a moderate level of p53/p73OD expression is likely to differ from that of cancer cells. This was tested by comparing MDA-MB-231 cells and MCF-10A cells (a non-transformed human breast epithelial cell line), using a similar colony formation assay.

[2] = system: MDA-MB-231 cells stably expressing Pg13-GFP; test: Pg13-GFP reporter of p53 activation; format: cell-based, human; conditions: delivered with GLU-PEG-PEI, 0.2 μg DNA/60-mm dish, 24 h
Protocol: The cells were fixed 24 h later using 2% formalin and stained with DAPI dye. The top panels show the GFP expression. The bottom panels show cell nuclei detected by DAPI staining.
To facilitate the detection of p53 activation in situ, a Pg13-GFP system was developed in which 13 repeats of a canonical p53 responsive element were cloned to drive the expression of GFP protein. An absolute dependency of the GFP expression on p53 was verified with p53-null H1299 cells. […] The cells were fixed 24 h later.

[3] = system: MDA-MB-231 cells; test: Western analysis of p53 pathway; format: cell-based, human
Protocol: After selection with puromycin, the cells were subjected to colony formation assay. The data are means±SE from three separate experiments (A). Western analysis was performed with cells that were harvested at 48 h pos-selection and probed using the indicated antibodies (B).
(§1) A. Cells as in FIG. 6 were subject to Western analysis using the indicated antibodies. P53/p73OD expressing MDA-MB-231 or MCF-10A cells were either mock or irradiated with 4Gy. The cells were either harvested at 6 h post-IR for Western analysis (B) or at 24 h for FACS analysis (C). The results are mean±SE from three independent experiments.
The present invention utilizes a p53/p73 chimera to circumvent this OD-mediated inactivation by mutant p53. A series of p53/p73 chimeric proteins were generated by swapping corresponding domains of p53 and p73 [28]. […] A crystal structure study has confirmed this observation. […] This is of particular significance considering the dominant-negative and gain-of-function activities of mutant p53 that are primarily responsible for the oncogenic function.
(§2) To understand potential mechanisms underlying the differential sensitivity of cancer cells and non-transformed cells to p53/p73OD expression, p53 activity was examined further. […] The result is in line with the notion that cancer cells, but not normal cells, harbor strong intrinsic p53-activating signals. The low activity of p53/p73OD in MCF-10A cells led to the question of whether the chimera could be activated by exogenous stimuli such as radiation.

[4] = system: MDA-MB-231 cells; test: Colony formation assay; format: cell-based, human; conditions: MDA-MB-231 cells expressing high level of mutant p53, transfected vector
[5] = system: MDA-MB-231 cells; test: FACS (flow cytometry) analysis after irradiation; format: cell-based, human; conditions: MDA-MB-231 cells expressing p53/p73OD, 4Gy, 24 h
Protocol: as §1, §2

[6] = system: MCF-10A cells; test: FACS (flow cytometry) analysis after irradiation; format: cell-based, human; conditions: MCF-10A cells expressing p53/p73OD, 4Gy, 24 h
Protocol: as §1, §2

[7] = system: MCF-10A cells; test: Western analysis of p53 pathway; format: cell-based, human; conditions: 4Gy, 6 h post-IR
Protocol: as §1, §2

[8] = biological target: p53 (Homo sapiens, UniProt P04637); conditions: reference [28]; cited from earlier work
Chain of p53 (P04637 whole entry): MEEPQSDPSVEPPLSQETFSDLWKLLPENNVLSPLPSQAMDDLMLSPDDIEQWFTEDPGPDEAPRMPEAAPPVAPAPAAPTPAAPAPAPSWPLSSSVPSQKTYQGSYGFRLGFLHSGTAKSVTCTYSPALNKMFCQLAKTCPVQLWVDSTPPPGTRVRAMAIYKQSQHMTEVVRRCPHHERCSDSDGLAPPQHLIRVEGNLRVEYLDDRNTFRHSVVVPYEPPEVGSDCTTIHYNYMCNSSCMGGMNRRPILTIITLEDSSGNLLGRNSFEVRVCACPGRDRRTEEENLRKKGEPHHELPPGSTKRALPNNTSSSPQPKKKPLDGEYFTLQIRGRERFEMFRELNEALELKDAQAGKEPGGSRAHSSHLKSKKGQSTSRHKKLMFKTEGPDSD

[9] = biological target: T1, p73 (Homo sapiens, UniProt O15350); conditions: reference [28]; cited from earlier work
T1 sequence (O15350 1-499 isoform O15350-2): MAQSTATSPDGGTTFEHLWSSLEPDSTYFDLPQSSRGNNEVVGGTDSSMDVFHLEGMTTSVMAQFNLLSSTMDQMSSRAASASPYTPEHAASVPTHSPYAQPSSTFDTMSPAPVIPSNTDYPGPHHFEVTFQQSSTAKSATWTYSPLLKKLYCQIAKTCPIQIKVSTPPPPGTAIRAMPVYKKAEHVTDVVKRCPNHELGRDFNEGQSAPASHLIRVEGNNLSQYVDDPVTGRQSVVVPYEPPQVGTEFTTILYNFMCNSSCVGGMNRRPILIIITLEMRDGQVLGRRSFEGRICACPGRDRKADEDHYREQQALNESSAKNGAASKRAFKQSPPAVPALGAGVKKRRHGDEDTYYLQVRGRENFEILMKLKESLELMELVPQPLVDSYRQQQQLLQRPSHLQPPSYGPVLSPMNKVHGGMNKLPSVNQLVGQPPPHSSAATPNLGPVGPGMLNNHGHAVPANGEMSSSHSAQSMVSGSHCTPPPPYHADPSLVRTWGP

p53/p73OD: human p53 protein in which amino acids 318 to 364 are replaced with amino acids 346-390 of p73 (the oligomerization domain)
cell growth (colony formation) [1]: did not significantly impact the growth
p53 transcription activity (GFP expression) [2]: increase of p53 transcription activity
PUMA, MDM2 and p21 expression [3]: robust induction
phosphorylation after IR ([3]; 4Gy, 6 h post-IR): markedly induced
mutant p53 protein level ([3]; Western, 48 h post-selection): significant decrease
phosphorylation (anti-Sp15p53 Western) ([3]; no irradiation): phosphorylated
cell growth (colony formation) [4]: effectively inhibited cell growth
G1 cell cycle arrest after IR [5]: little G1 cell cycle arrest
sub-G1, or apoptotic population after IR [5]: marked increase
G1 cell cycle arrest after IR [6]: significant G1 cell cycle arrest
phosphorylation after IR [7]: markedly induced
binding to p53 [8]: does not bind
association with p73 [9]: associates
